The results in this text go back to patent publication US12018011B2, “Macrocyclic compounds and compositions, and methods of preparing and using the same” (Kura Oncology, Inc., priority 2021, dated 2024).

As a reminder, the IC50 is the point on the concentration scale where inhibition reaches its midpoint.

For data set [1] the following is noted: ether bond, 13-membered ring, SOCl2, then Cs2CO3, 2 steps.
The conditions of data set [2]: ether bond, 13-membered ring, DMF.
Data set [3] is described as follows: Metabolic stability in human liver microsomes. It is filed as in vitro ADME. The note with it: human liver microsomes 0.5 mg protein/mL, test compound 1 μM, 37° C.; read-out: T1/2 in HLM. For orientation: Microsomes from liver hold many membrane-bound enzymes, among them those of drug oxidation.
A short description of data set [4]: Metabolic stability in mouse liver microsomes. It is filed as in vitro ADME. The note with it: CD-1 mouse liver microsomes 0.5 mg protein/mL, test compound 1 μM, 37° C.; read-out: T1/2 in MLM.
The next data set deals with T24/83 cells. Put plainly: T24/83 cell proliferation assay (CellTiter-Glo). In kind it is cell-based. Particulars: Homo sapiens, 96 h, 4 days. The essentials:
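HRAS-mutant T24/83 bladder carcinoma cells seeded at 100 cells/well and grown with inhibitor for 4 days at 37 °C; 0.7% DMSO negative control, 100 μM tipifarnib positive control. Viability by CellTiter-Glo luminescence.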

Data set [5] has as its target T1, geranylgeranyl transferase type-1 (GGTase) (Homo sapiens, UniProt P53609).
T1 construct: purchased Crelux (Martinsried, Germany)
Briefly: GGTase fluorescence assay (dansyl-GCVLL peptide, GGPP). It is filed as biochemical. The note with it: GGTase 25 nM, Dansyl-GCVLL 10 μM, GGPP 10 μM, 30° C., 120 minutes.

The target of data set [6] is T2, Recombinant human farnesyl transferase (FTase) (Homo sapiens, UniProt P49356).
T2 construct: purchased Crelux (Martinsried, Germany)
Put plainly: FTase fluorescence assay (farnesylation of dansyl-GCVLS peptide). It is filed as biochemical. Particulars: recombinant human FTase 2.5 nM, Dansyl-GCVLS 85 nM, FPP 30 nM, 30° C., 50 minutes.

For data set [7] the following is noted: ether bond.

Read-outs that look alike come from different tables or passages of the source. Bounds are passed on as bounds.

Take “4^4-bromo-2^2-chloro-3-(1-methyl-1H-imidazol-5-yl)-6-oxa-2(4,6)-quinolina-1,4(1,3)-dibenzenacyclohexaphan-3-ol”: the ring closure, crude yield in data set [1] (DMF, 116.2 mM, 70.0 °C) amounted to 84%.

In data set [1] (DMF, 122.7 mM, 70.0 °C), “4^4-bromo-2^2-methoxy-3-(1-methyl-1H-imidazol-5-yl)-6-oxa-2(4,6)-quinolina-1,4(1,3)-dibenzenacyclohexaphan-3-ol” had a ring closure, crude yield of 84.8%.

For “4^4-bromo-3-(1-methyl-1H-imidazol-5-yl)-6-oxa-2(1,7)-isoquinolina-1,4(1,3)-dibenzenacyclohexaphan-3-ol”, the ring closure, isolated yield in data set [2] (Cs2CO3, 77.0 mM, 50.0 °C) came out at 60.6%.

As for “4^4-chloro-2^2-methoxy-3-(1-methyl-1H-imidazol-5-yl)-6-oxa-2(4,6)-quinolina-1,4(1,3)-dibenzenacyclohexaphan-3-ol”, the ring closure, crude yield in data set [1] (DMF/THF 1:3, 9.96 mM, 105.0 °C) was 90.7%.

As to “4^4-chloro-2^2-methoxy-3-(4-methyl-4H-1,2,4-triazol-3-yl)-6-oxa-2(4,6)-quinolina-1,4(1,3)-dibenzenacyclohexaphan-3-ol”, the ring closure, isolated yield in data set [2] (K2CO3, 29.8 mM, 55.0 °C) came to 69.1%.

For the compound “4^6-chloro-2^2-methoxy-3-(1-methyl-1H-imidazol-5-yl)-6-oxa-2(4,6)-quinolina-4(3,5)-pyridina-1(1,3)-benzenacyclohexaphan-3-ol”, the ring closure, crude yield in data set [1] (DMF, 64.5 mM, 70.0 °C) amounted to 95.6%.

Regarding `Cn1cncc1[C@@]1(N)c2ccc(C#N)c(c2)COc2cccc(c2)-c2cc(C#N)nc3ccc1cc23` [(S)-58, (S)-3-amino-3-(1-methyl-1H-imidazol-5-yl)-6-oxa-2(4,6)-quinolina-1,4(1,3)-dibenzenacyclohexaphane-2^2 4^4-dicarbonitrile], the half-life at 1 μM is over 100 min in data set [3] and over 15 min in data set [4]. Moreover, the IC50 in the data set on T24/83 cells was at most 50 nM; in data set [5], over 1000 nM; in data set [6] it was at most 10 nM.

`COc1cc2c3cc(ccc3n1)C(O)(c1cncn1C)c1ccc(Cl)c(c1)COc1cccc-2c1` (centres unmarked) [Compound 43, 4^4-chloro-2^2-methoxy-3-(1-methyl-1H-imidazol-5-yl)-6-oxa-2(4,6)-quinolina-1,4(1,3)-dibenzenacyclohexaphan-3-ol] gave a ring closure, yield of all isomers in data set [7] (from COc1cc(-c2cccc(O)c2)c2cc(C(O)(c3ccc(Cl)c(CO)c3)c3cncn3C)ccc2n1, Cs2CO3, THF, 9.5 mM, 105.0 °C, 10.0 h, 2 steps) of 82.9%. Besides, in data set [6], the IC50 was in the range of 10 to 100 nM.

In turn, `COc1cc2c3cc(ccc3n1)C(O)(c1nncn1C)c1ccc(Cl)c(c1)COc1cccc-2c1` (centres unmarked) [Compound 49, 4^4-chloro-2^2-methoxy-3-(4-methyl-4H-1,2,4-triazol-3-yl)-6-oxa-2(4,6)-quinolina-1,4(1,3)-dibenzenacyclohexaphan-3-ol] came in with a ring closure, yield of all isomers in data set [7] (from COc1cc(-c2cccc(O)c2)c2cc(C(O)(c3ccc(Cl)c(CCl)c3)c3nncn3C)ccc2n1, K2CO3, DMF, 29.8 mM, 55.0 °C, 12.0 h) of 19%. Besides, in data set [6], the IC50 was over 100 nM.

In the case of `COc1cc2c3cc(ccc3n1)C(O)(c1cncn1C)c1ccc(Br)c(c1)COc1cccc-2c1` (centres unmarked) [Compound 52, 4^4-bromo-2^2-methoxy-3-(1-methyl-1H-imidazol-5-yl)-6-oxa-2(4,6)-quinolina-1,4(1,3)-dibenzenacyclohexaphan-3-ol], the ring closure, yield of all isomers in data set [7] (from COc1cc(-c2cccc(O)c2)c2cc(C(O)(c3ccc(Br)c(CO)c3)c3cncn3C)ccc2n1, Cs2CO3, DMF, 122.7 mM, 70.0 °C, 0.5 h, 2 steps) is 84.8%. The IC50 in data set [6] lay within 10 to 100 nM.

`COc1cc2c3cc(ccc3n1)C(O)(c1cncn1C)c1cnc(Cl)c(c1)COc1cccc-2c1` (centres unmarked) [Compound 59, 4^6-chloro-2^2-methoxy-3-(1-methyl-1H-imidazol-5-yl)-6-oxa-2(4,6)-quinolina-4(3,5)-pyridina-1(1,3)-benzenacyclohexaphan-3-ol] showed a ring closure, yield of all isomers in data set [7] (from COc1cc(-c2cccc(O)c2)c2cc(C(O)(c3cnc(Cl)c(CO)c3)c3cncn3C)ccc2n1, SOCl2 then Cs2CO3, DMF, 64.5 mM, 70.0 °C, 1.0 h, 2 steps) of 95.6%. In addition, the IC50 in data set [6] is over 100 nM.

In data set [7] (from Cn1cncc1C(O)(c1ccc(Br)c(CO)c1)c1ccc2nc(Cl)cc(-c3cccc(O)c3)c2c1, Cs2CO3, DMF, 116.2 mM, 70.0 °C, 2.0 h, 2 steps), `Cn1cncc1C1(O)c2ccc(Br)c(c2)COc2cccc(c2)-c2cc(Cl)nc3ccc1cc23` (centres unmarked) [Compound 71, 4^4-bromo-2^2-chloro-3-(1-methyl-1H-imidazol-5-yl)-6-oxa-2(4,6)-quinolina-1,4(1,3)-dibenzenacyclohexaphan-3-ol] yielded a ring closure, yield of all isomers of 84%. Further, the IC50 in data set [6] was over 100 nM.

With `Cn1cncc1[C@@](N)(c1ccc(Cl)cc1)c1ccc2c(c1)c(-c1cccc(Cl)c1)cc(=O)n2C` [Tipifarnib, tipifarnib, reference compound], the half-life at 1 μM in data set [3] was under 30 min; in data set [4], under 5 min. Further, the IC50 is at most 50 nM with T24/83 cells, over 1000 nM in data set [5] and at most 10 nM in data set [6].
